Measurements reported in PubChem BioAssay (NCI).
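Step 1: Grow cells in 96-well plates. Step 2: Expose to compound for 48 hours at 5 concentrations. Step 3: Interpolate endpoints linearly; if unreached, use highest concentration. At the TGI there is no net growth.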

What was measured:
Experiment in all cases: inhibition of tumour cell growth, NCI panel, 48 h
NCI-H460 lung = tested on: NCI-H460 lung
ACHN renal = tested on: ACHN renal
CAKI-1 renal = tested on: CAKI-1 renal
MOLT-4 leukemia = tested on: MOLT-4 leukemia
RXF-631 renal = tested on: RXF-631 renal
IGROV1 ovarian = tested on: IGROV1 ovarian
CCRF-CEM leukemia = tested on: CCRF-CEM leukemia
SK-MEL-2 melanoma = tested on: SK-MEL-2 melanoma
SW-620 colon = tested on: SW-620 colon
UACC-257 melanoma = tested on: UACC-257 melanoma
EKVX NSCLC = tested on: EKVX NSCLC
RPMI-8226 leukemia = tested on: RPMI-8226 leukemia
NCI-H226 lung = tested on: NCI-H226 lung
OVCAR-3 ovarian = tested on: OVCAR-3 ovarian
HOP-18 NSCLC = tested on: HOP-18 NSCLC
HCC-2998 colon = tested on: HCC-2998 colon
A549 NSCLC = tested on: A549 NSCLC
SK-MEL-28 melanoma = tested on: SK-MEL-28 melanoma
SK-MEL-5 melanoma = tested on: SK-MEL-5 melanoma
786-0 renal = tested on: 786-0 renal
SNB-75 CNS = tested on: SNB-75 CNS
OVCAR-8 ovarian = tested on: OVCAR-8 ovarian
DMS 114 small cell lung = tested on: DMS 114 small cell lung
SF-295 CNS = tested on: SF-295 CNS
OVCAR-4 ovarian = tested on: OVCAR-4 ovarian
TK-10 renal = tested on: TK-10 renal
SF-268 CNS = tested on: SF-268 CNS
XF 498 CNS = tested on: XF 498 CNS
COLO 205 colon = tested on: COLO 205 colon
HCT-116 colon = tested on: HCT-116 colon
LXFL 529 NSCLC = tested on: LXFL 529 NSCLC
NCI-H522 lung = tested on: NCI-H522 lung
KM20L2 colon = tested on: KM20L2 colon
LOX IMVI melanoma = tested on: LOX IMVI melanoma
DMS 273 small cell lung = tested on: DMS 273 small cell lung
U251 CNS = tested on: U251 CNS
SK-OV-3 ovarian = tested on: SK-OV-3 ovarian
M19-MEL melanoma = tested on: M19-MEL melanoma
HL-60(TB) leukemia = tested on: HL-60(TB) leukemia
SNB-19 CNS = tested on: SNB-19 CNS
NCI-H23 lung = tested on: NCI-H23 lung
M14 melanoma = tested on: M14 melanoma
SF-539 CNS = tested on: SF-539 CNS
HCT-15 colon = tested on: HCT-15 colon
HOP-92 NSCLC = tested on: HOP-92 NSCLC
SR leukemia = tested on: SR leukemia
OVCAR-5 ovarian = tested on: OVCAR-5 ovarian
SN12C renal = tested on: SN12C renal
UACC-62 melanoma = tested on: UACC-62 melanoma
HOP-62 NSCLC = tested on: HOP-62 NSCLC
UO-31 renal = tested on: UO-31 renal
A498 renal = tested on: A498 renal
MALME-3M melanoma = tested on: MALME-3M melanoma
KM12 colon = tested on: KM12 colon
K-562 leukemia = tested on: K-562 leukemia
DLD-1 colon = tested on: DLD-1 colon
HT29 colon = tested on: HT29 colon
SNB-78 CNS = tested on: SNB-78 CNS
RXF 393 renal = tested on: RXF 393 renal

In the case of `CC(C)N(C(=O)C12C3C4C1C1C4(C#N)C3C12C(=O)O)C(C)C` (stereo not given), the TGI (NCI-H460 lung) is reported as > 100 µM, the TGI (ACHN renal) is reported as > 100 µM and the TGI (CAKI-1 renal) is reported as > 100 µM. The TGI (MOLT-4 leukemia) was > 100 µM, the TGI (RXF-631 renal) was > 100 µM and the TGI (IGROV1 ovarian) was > 100 µM. The TGI (CCRF-CEM leukemia) was > 82 µM, the TGI (SK-MEL-2 melanoma) was > 100 µM and the TGI (SW-620 colon) was > 100 µM. The TGI (UACC-257 melanoma) was > 100 µM, the TGI (EKVX NSCLC) was > 100 µM and the TGI (RPMI-8226 leukemia) was > 66.7 µM. For the same molecule, the TGI (NCI-H226 lung) was > 100 µM, the TGI (OVCAR-3 ovarian) was > 100 µM and the TGI (HOP-18 NSCLC) was > 100 µM. For the same molecule, the TGI (HCC-2998 colon) was > 100 µM, the TGI (A549 NSCLC) was > 100 µM and the TGI (SK-MEL-28 melanoma) was > 100 µM. The TGI (SK-MEL-5 melanoma) was > 100 µM, the TGI (786-0 renal) was > 100 µM and the TGI (SNB-75 CNS) was > 100 µM. The TGI (OVCAR-8 ovarian) was > 100 µM, the TGI (DMS 114 small cell lung) was > 100 µM and the TGI (SF-295 CNS) was > 100 µM. The TGI (OVCAR-4 ovarian) was > 100 µM, the TGI (TK-10 renal) was > 100 µM and the TGI (SF-268 CNS) was > 100 µM. The TGI (XF 498 CNS) was > 100 µM, the TGI (COLO 205 colon) was > 100 µM and the TGI (HCT-116 colon) was > 100 µM. The TGI (LXFL 529 NSCLC) was > 100 µM, the TGI (NCI-H522 lung) was > 100 µM and the TGI (KM20L2 colon) was > 100 µM. The TGI (LOX IMVI melanoma) was > 100 µM, the TGI (DMS 273 small cell lung) was > 100 µM and the TGI (U251 CNS) was > 100 µM. The TGI (SK-OV-3 ovarian) was > 100 µM, the TGI (M19-MEL melanoma) was > 100 µM and the TGI (HL-60(TB) leukemia) was > 63 µM. For the same molecule, the TGI (SNB-19 CNS) was > 100 µM, the TGI (NCI-H23 lung) was > 100 µM and the TGI (M14 melanoma) was > 100 µM. For the same molecule, the TGI (SF-539 CNS) was > 100 µM, the TGI (HCT-15 colon) was > 68.2 µM and the TGI (HOP-92 NSCLC) was > 100 µM. The TGI (SR leukemia) was 41.4 µM, the TGI (OVCAR-5 ovarian) was > 100 µM and the TGI (SN12C renal) was > 100 µM. The TGI (UACC-62 melanoma) was > 100 µM, the TGI (HOP-62 NSCLC) was > 100 µM and the TGI (UO-31 renal) was > 100 µM. The TGI (A498 renal) was > 100 µM, the TGI (MALME-3M melanoma) was > 100 µM and the TGI (KM12 colon) was > 100 µM. For the same molecule, the TGI (K-562 leukemia) was > 100 µM, the TGI (DLD-1 colon) was > 100 µM and the TGI (HT29 colon) was > 100 µM. For the same molecule, the TGI (SNB-78 CNS) was > 100 µM.

For `CC(C)C(NCc1c2ccccc2[n+](C)c2ccccc12)C(=O)O` (stereo not given), the TGI (NCI-H460 lung) was 29.1 µM, the TGI (ACHN renal) was 16.4 µM and the TGI (CAKI-1 renal) was 12.1 µM. For the same molecule, the TGI (MOLT-4 leukemia) was 7.86 µM, the TGI (RXF-631 renal) was 17.1 µM and the TGI (IGROV1 ovarian) was 25.5 µM. For the same molecule, the TGI (SK-MEL-2 melanoma) was 17 µM, the TGI (SW-620 colon) was 18.8 µM and the TGI (UACC-257 melanoma) was 19.5 µM. It also gave a TGI (EKVX NSCLC) of 24.2 µM, a TGI (RPMI-8226 leukemia) of 5.15 µM and a TGI (NCI-H226 lung) of 38.6 µM. The TGI (OVCAR-3 ovarian) was 16.9 µM, the TGI (HOP-18 NSCLC) was 18.1 µM and the TGI (HCC-2998 colon) was 29.3 µM. For the same molecule, the TGI (RXF 393 renal) was 12.5 µM, the TGI (A549 NSCLC) was 29.9 µM and the TGI (SK-MEL-28 melanoma) was 26.8 µM. The TGI (SK-MEL-5 melanoma) was 20.8 µM, the TGI (786-0 renal) was 15.6 µM and the TGI (SNB-75 CNS) was 18 µM. For the same molecule, the TGI (OVCAR-8 ovarian) was 15.1 µM, the TGI (DMS 114 small cell lung) was 5.79 µM and the TGI (SF-295 CNS) was 20.5 µM. For the same molecule, the TGI (OVCAR-4 ovarian) was 20.7 µM, the TGI (TK-10 renal) was 21.3 µM and the TGI (SF-268 CNS) was 10.9 µM. The TGI (XF 498 CNS) was 17.8 µM, the TGI (COLO 205 colon) was 10.6 µM and the TGI (HCT-116 colon) was 13.6 µM. The TGI (LXFL 529 NSCLC) was 14 µM, the TGI (NCI-H522 lung) was 3.69 µM and the TGI (KM20L2 colon) was 7.33 µM. For the same molecule, the TGI (LOX IMVI melanoma) was 17.3 µM, the TGI (DMS 273 small cell lung) was 13.3 µM and the TGI (U251 CNS) was 18 µM. For the same molecule, the TGI (SK-OV-3 ovarian) was 31 µM, the TGI (M19-MEL melanoma) was 21.2 µM and the TGI (HL-60(TB) leukemia) was > 21 µM. It also gave a TGI (SNB-19 CNS) of 33 µM, a TGI (NCI-H23 lung) of 27.2 µM and a TGI (M14 melanoma) of 16 µM. For the same molecule, the TGI (SF-539 CNS) was 14.3 µM, the TGI (HCT-15 colon) was 13.9 µM and the TGI (HOP-92 NSCLC) was 12.5 µM. The TGI (OVCAR-5 ovarian) was 33.2 µM, the TGI (SN12C renal) was 18 µM and the TGI (UACC-62 melanoma) was 18.6 µM. The TGI (HOP-62 NSCLC) was 19.7 µM, the TGI (UO-31 renal) was 21.7 µM and the TGI (A498 renal) was 24.6 µM. It also gave a TGI (MALME-3M melanoma) of 19.1 µM, a TGI (KM12 colon) of 18.7 µM and a TGI (K-562 leukemia) of 18.5 µM. It also gave a TGI (DLD-1 colon) of 13.8 µM, a TGI (HT29 colon) of 10.3 µM and a TGI (SNB-78 CNS) of 24.8 µM.
